Experiments:
GPR120 [1] = experiment: Bias of agonists (Gq versus β-arrestin2 pathway); assay type: cell-based; settings: reference GSK137647A pathways P1 Gq, P2 β-arrestin2
Excerpt: The bias was quantified by Eq. 1, in which β is the bias factor, Emax is the maximum effect produced by the agonist, and Pl and P2 represents the Gq and β-arrestin2 signal pathway, respectively.
Formula 1: β=log((Emax,P1/EC50,P1EC50,P2/Emax,P2)lig×(Emax,P2/EC50,P2EC50,P1/Emax,P1)ref) (1)

GPR120 [2] = target: T1, GPR120 (Homo sapiens, UniProt Q5NUL3); experiment: Preliminary screening of agonists by BRET competition with probe N1; assay type: binding; design: expressed in transfected cells; settings: 10 μM compound, probe N1 400 nM
T1 sequence (Q5NUL3 1-361): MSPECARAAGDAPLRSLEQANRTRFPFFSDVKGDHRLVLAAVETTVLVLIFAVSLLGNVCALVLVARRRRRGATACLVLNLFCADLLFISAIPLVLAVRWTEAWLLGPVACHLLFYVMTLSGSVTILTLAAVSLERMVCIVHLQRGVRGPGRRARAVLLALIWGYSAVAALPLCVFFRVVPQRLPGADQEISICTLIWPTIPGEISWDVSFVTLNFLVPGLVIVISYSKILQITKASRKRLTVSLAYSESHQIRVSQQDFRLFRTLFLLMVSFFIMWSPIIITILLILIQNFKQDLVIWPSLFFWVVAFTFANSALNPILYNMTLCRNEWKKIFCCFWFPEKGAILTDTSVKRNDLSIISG
Experimental: HEK293 cells stably transfected with the GPR120-Rluc gene were seeded in a black 96-well plate (100 μl, 2 × 10^4 cells per well). After a 24-h incubation, the medium was removed, probe N1 (400 nM, 50 μl per well) was added, and 10 μM of the compound was added after a 30-min incubation as well. Followed by a 40-min incubation, coelenterazine (final concentration: 10 μM, 50 μl per well) was added to the plate. Afterward, the fluorescence intensity was measured at 450 and 550 nm with the microplate reader after another 10-min incubation.

db/db mice [3] = experiment: Fasting blood glucose in db/db mice after 4 weeks of administration; assay type: in vivo; settings: gavage once a day
Experimental: (§1) All animal studies were approved by the Ethics Committee and IACUC of Cheeloo College of Medicine, Shandong University, and were conducted in compliance with European Guidelines for the Care and Use of Laboratory Animals. After adaptive feeding for 10–15 days, the db/db mice were divided into positive control group (30 mg/kg), low content compound group (10 mg/kg), high content compound group (30 mg/kg), and negative control group (the same volume dosing solvent). These mice were administrated by gavage once a day (administration volume, 20 ml/kg) for four consecutive weeks. During the administration period, the fasting blood glucose (without food and water for 6 h) was measured twice a week by using a blood glucose meter. The blood glucose level was measured for four consecutive weeks. The data was processed with Graphpad 8.2 software ([Cox et al., 2017]; [Zhang et al., 2017]).

GPR120 [4] = target: T1, GPR120; experiment: Fluorescence imaging in HEK293 cells (stably transfected with GPR120) and PC-3 cells; assay type: cell-based; design: expressed in transfected cells
Experimental: HEK293 and PC-3 cells were seeded in fluorescent confocal dishes (5 × 10^3 per well). After the cells were iron-walled, the medium was removed from the dishes, the cells were washed once with a serum-free medium, and the probe was added. After incubating the cells for 10 min, the confocal dishes were observed by an inverted fluorescence microscope.

GPR40 = target: T2, GPR40 (Homo sapiens, UniProt O14842); experiment: GPR40 Ca2+ flow assay in CHO cells with transient GPR40 gene; assay type: cell-based
T2 construct: expressed in transfected cells; host or cells: CHO (transient)
Experimental: Ca^2+ flow activity was determined in HEK293 cells stably transfecting the GPR120-Rluc gene. After incubating the cells for 24 h, the medium was removed from the plate, and the cells were washed with HBSS buffer (without Ca^2+ and Mg^2+). Subsequently, a 2-μM Fluo-4 AM working solution in HBSS buffer (without Ca^2+ and Mg^2+) was added to the plate (40 μl per well). After incubating the cells for 20 min at 37°C, compound solution at different concentrations in HBSS buffer (per well 160 μl) was added. Followed by a 40-min incubation, the solution was removed from the plate, HEPES buffer (200 μl per well) was added, and the fluorescence intensity was detected using the microplate reader (Ex: 488 nm; Em: 520 nm) ([Watterson et al., 2017]).
Ca^2+ flow activity was determined in CHO cells with transient GPR40 gene by the same method as well, in which the GPR40 agonist TAK875 was used as a positive control.

[5] = Weight changes of db/db mice during four weeks of administration; assay type: in vivo
Experimental: as §1

GPR120 [6] = target: T1, GPR120; experiment: GPR120 Ca2+ flow assay in HEK293 cells stably transfecting the GPR120-Rluc gene; assay type: cell-based; design: expressed in transfected cells
Experimental: Ca^2+ flow activity was determined in HEK293 cells stably transfecting the GPR120-Rluc gene. After incubating the cells for 24 h, the medium was removed from the plate, and the cells were washed with HBSS buffer (without Ca^2+ and Mg^2+). Subsequently, a 2-μM Fluo-4 AM working solution in HBSS buffer (without Ca^2+ and Mg^2+) was added to the plate (40 μl per well).

db/db mice [7] = experiment: Glucose tolerance test in db/db mice; assay type: in vivo
Experimental: On the last day of the dosing cycle, the fasting blood glucose of mice was measured (without food and water for 6 h), and glucose solution (100 mg/kg) was injected. The blood glucose was measured at […] (5, 10, 30, 60, and 120 min). Finally, the area under the curve was analyzed with SPSS 24 software.

GPR120 [8] = target: T1, GPR120; experiment: BRET activity test (β-arrestin-2 recruitment, GPR120-YFP / β-arrestin-2-Rluc in HEK293 cells); assay type: cell-based; design: host or cells: HEK293 (transfected with both plasmids)
Experimental: GPR120-YFP and β-arresting-2-Rluc plasmids were transfected into HEK293 cells. After a 24-h incubation, the cells were seeded in a black 96-well plate (100 μl, 20,000 cells per well). Followed by a 24-h incubation, the solution was removed from the plate, and compounds with different concentrations (100 μl per well) and coelenterazine (10 μM, 100 μl per well) were added, followed by the fluorescence intensity was measured at 460 and 520 nm with the microplate reader ([Christiansen et al., 2016]; [Hill et al., 2018]).

GPR120 [9] = target: T1, GPR120; experiment: BRET saturation experiment of probe N1; design: expressed in transfected cells; settings: 15 μM GSK134647A for non-specific binding
Experimental: HEK293 cells stably transfecting the GPR120-Rluc gene were seeded in two black 96-well plates (100 μl, 2 × 10^4 cells per well). After incubating the cells for 24 h, the medium of the non-specific plate was removed, and positive control GSK134647A (15 μM, 50 μl per well) was added into each well. After a 40-min incubation, the medium was removed, and probe N1 was added into two plates (100 μl per well). Followed by incubation for 40 min, coelenterazine was added to the plates (final concentration: 10 μM, 100 μl per well for specific plates; 50 μl per well for non-specific plates). Finally, the fluorescence intensity was measured at 460 and 520 nm with the microplate reader after a 10-min incubation ([Christiansen et al., 2016]).

[10] = Optical property of fluorescent probes; assay type: physicochemical
Experimental: The stocking solution of probes was diluted with acetonitrile to 40 μM, and their ultraviolet absorption spectrum was scanned with an ultraviolet spectrophotometer. Secondly, the excitation and emission spectra of probes at 10, 20, 30, and 40 μM with PBS buffer were measured with a microplate reader. Moreover, the excitation and emission spectrum were recorded in four solvents: MeCN, DMSO, H2O, and EA, respectively.

GPR120 [11] = target: T1, GPR120; experiment: BRET kinetic binding experiment of probe N1; design: expressed in transfected cells
Experimental: HEK293 cells stably transfecting the GPR120-Rluc gene were seeded in two entirely black 96-well plates (100 μl, 2 × 10^4 cells per well). After a 24-h incubation, the medium was removed from the non-specific plate, coelenterazine was added to (final concentration: 10 μM, 50 μl per well) the plates, and BRET value was measured after a 5-min incubation. Probe N1 (500 nM, 100 μl per well) was then added, and the BRET value was recorded in a 30-s interval for 6 minutes. Finally, GSK137647A was added (50 μl per well), and BRET value was measured in a 30-s interval for 30 min.

FFA1 = tested on: FFA1; design: method as in Sparks et al., 2014; settings: in Figure 3; ref Sparks et al., 2014; cited from earlier work
FFA4 = tested on: FFA4; design: method as in Sparks et al., 2014; settings: in Figure 3; ref Sparks et al., 2014; cited from earlier work
GPR120 [12] = settings: cited from earlier work
GPR120 [13] = target: T1, GPR120; experiment: BRET competitive binding experiment with probe N1; design: expressed in transfected cells; settings: probe N1 400 nM, read-out: pKi (N1) (converted)
Experimental: HEK293 cells stably transfected with the GPR120-Rluc gene were seeded in a black 96-well plate (100 μl, 2 × 10^4 cells per well). After the cells were incubated for 24 h, the medium was removed, and probe N1 (400 nM, 50 μl per well) was added. […] Followed by a 40-min incubation, coelenterazine was added to (final concentration: 10 μM, 50 μl per well) the plates. Thenceforward, the fluorescence intensity was measured at 450 and 550 nm with the microplate reader after a 10-min incubation.

[14] = GPR120, Ca2+ flow, HEK293 GPR120-Rluc cells, read-out: pEC50 Ca2+ assay (converted)
[15] = GPR120, β-arrestin-2 activity test, read-out: pEC50 BRET (converted)

O=S(=O)(Nc1ccc(F)cc1)c1ccc(-c2ccc(OC(F)(F)F)cc2)cc1 [Compound D5, N-(4-Fluorophenyl)-4′-(Trifluoromethoxy)-[1,1′-Biphenyl]-4-Sulfonamide]
bias (bias factor, Gq vs β-arrestin2) (GPR120 [1]): relatively biased towards the Gq pathway
inhibition rate in BRET screening compared with GSK137647A (GPR120 [2]): higher than GSK137647A
fasting blood glucose-lowering level compared with GSK137647A (db/db mice [3]; 10 mg/kg): the same blood glucose-lowering level
fasting blood glucose-lowering level compared with GSK137647A (db/db mice [3]; 30 mg/kg): a higher blood-glucose-lowering level
fluorescence intensity of N1 after co-incubation (competitive cell imaging) (GPR120 [4]; N1 0.5 μM and D5 10 μM, HEK293 cells stably transfected with GPR120): decreased significantly
EC50 (GPR40; CHO cells, GPR40, read-out: FFA1 (Ca2+ pEC50) (converted)): > 50100 nM
weight change ([5]; 10 mg/kg): reached a stable level in the fourth week
weight change ([5]; 30 mg/kg): decreased in the fourth week
Emax (FFA4 Ca2+) (GPR120 [6]; GSK137647A used as a standard): 1.22
EC50 (GPR120 [6]; Table 3, read-out: FFA4 (Ca2+ pEC50) (converted)): 5.37 nM
reduction of blood glucose AUC0–120 min (db/db mice [7]; 10 mg/kg): 15.3%
reduction of blood glucose AUC0–120 min (db/db mice [7]; 30 mg/kg): 30.3%
Emax (FFA4 β-arrestin2) (GPR120 [8]; GSK137647A used as a standard): 1.12
EC50 (GPR120 [8]; Table 3, read-out: FFA4 (β-arrestin2 pEC50) (converted)): 34.7 nM
melting point: 148 to 149 °C

Cc1cc(C)c(NS(=O)(=O)c2ccc(NCCN3C(=O)c4cccc5c(N(C)C)ccc(c45)C3=O)cc2)c(C)c1 [Compound N1, 4-((2-(6-(Dimethylamino)-1,3-dioxo-1H-benzo[de]isoquinolin-2(3H)-yl)ethyl)amino)-N-mesitylbenzenesulfonamide]
Kd (GPR120 [9]): 1120 ± 600 nM
fluorescence intensity in cell imaging (GPR120 [4]; HEK293 and PC-3 cells): much greater than that of N2 and N3
Ca2+ response to GPR40 compared with TAK875 (GPR40; TAK875 as positive control): much lower than that of TAK875
λabs ([10]; MeCN): 419 nm
Φ (absolute quantum yield) ([10]; PBS): 3.73%
λem ([10]; PBS): 562 nm
λex ([10]; PBS): 444 nm
SS (stokes shift) ([10]; PBS buffer (pH = 7.4)): 118 nm
EC50 (GPR120 [6]; [14]): 891 nM
EC50 (GPR120 [8]; [15]): 427 nM
melting point: 230 to 231 °C
time to reach a stable state of dissociation from GPR120 (GPR120 [11]; after adding excess GSK137647A): 30 min
Kd (GPR120 [11]; kinetic binding experiment): 273 nM
time for binding to GPR120 to reach saturation (GPR120 [11]; probe 500 nM): ≤ 6 min
koff (GPR120 [11]; probe 500 nM, dissociation by GSK137647A (10 μM), read-out: off-rate koff (converted)): 0.00113 s⁻¹
kon (GPR120 [11]; probe 500 nM, read-out: on-rate kon (converted)): 4150 M⁻¹ s⁻¹

COc1ccc(S(=O)(=O)Nc2c(C)cc(C)cc2C)cc1 [GSK137647A, reference compound]
FFA1 Human pEC50 (FFA1): < 4.5
FFA4 Human pEC50 (FFA4): 6.3(0.17)
EC50 (GPR120 [6]; [14]): 44.7 nM
pEC50 (Ca2+ assay) (GPR120 [6]; GPR120, Table 2): 7.35 ± 0.59
reduction of blood glucose AUC0–120 min (db/db mice [7]; 30 mg/kg): 19.3%
pEC50 (Literature) (GPR120 [12]): 6.30 ± 0.2^16
EC50 (GPR120 [8]; [15]): 178 nM
Ki (GPR120 [13]): 110 nM

Reference: paper PMC8841740, “Fluorescent Ligand-Based Discovery of Small-Molecule Sulfonamide Agonists for GPR120” (Frontiers in Chemistry, 2022)
